Tests used:
IR-FKBP = test: Western blotting and imaging of IR activity in HepG2 cells expressing IR-GFP-FKBP; format: cell-based, human; conditions: 5 μM AP1903 16 hours vs DMSO
Description: For experiments that forced reduction in IR condensate dynamics, the vector used in this assay was modified from pJH135_pb_MCPx2_mCherry_rTTA vector^11. IR-mEGFP-FKBP, which consists of the insulin receptor cDNA, flexible linker 1, mEGFP, flexible linker 2, and four copies of FKBP, was cloned into PmeI and NheI digested pJH135_pb_MCPx2_mCherry_rTTA using Gibson cloning by following the manufacturer's instructions (NEB, E2621S). This vector is called JP204 pb_TetON_INSR_2A_GFP_Dmbr4.
For experiments that forced reduction in IR condensate dynamics, 1×10^5 cells/cm^2 HepG2 cells were transfected with 0.07 μg/cm^2 pJP204_pb_TetON_INSR_2A_GFP_Dmbr4 using Lipofectamine 3000 (Invitrogen, L3000). On day 2, the cells were treated with 100 ng/ml doxycycline (Sigma, D9891-5G). […]
Cells were washed with ice-cold PBS (Life Technologies, AM9625) and lysed in Cell Lytic M (Sigma Aldrich C2978) supplemented with protease and phosphatase inhibitors (Sigma Aldrich, 11873580001 and 4906837001) directly on the wells. […] Super natant was collected and protein concentration was determined using a BCA Protein Assay Kit (Life Technologies, 23250) according to the manufacturer's instructions. […] Immunoblot quantification was performed using the “analyze gel” tool on Fiji/ImageJ v2.1.0/153c.
To quantify pIRS1 fluorescent signal in IR puncta/condensates manually, Airyscan images were opened on Fiji as composite images. […]

IR-FKBP condensates = test: tc-PALM of IR-Dendra2-FKBP condensate lifetime in HepG2 cells; format: cell-based, human; conditions: HepG2 cells expressing IR-FKBP; 5 μM AP1903 16 hours vs DMSO
Description: A CRISPR/Cas9 system was used to generate genetically modified HepG2 cell lines. Target sequences were cloned into a plasmid containing sgRNA backbone, a codon-optimized version of Cas9 and mCherry. For IR targeting, two Cas9 gRNAs were used. For the generation of the IR-mEGFP, IR-Dendra2, and IR-Dendra2-FKBP endogenously tagged lines, homology directed repair templates were cloned into pUC19 using NEBuilder HiFi DNA Assembly Master Mix (NEB, E2621S). For IR-mEGFP and IR-Dendra2 cell lines, the homology repair template consisted of mEGFP or Dendra2 cDNA sequence flanked on either side by 800 bp homology arms amplified from HepG2 genomic DNA using PCR (FIG. 27A). […]
Widefield, live-cell, super-resolution imaging was performed in a photo-activation localization microscopy (PALM) approach using a Nikon Eclipse Ti microscope with a 100× oil immersion objective. […] During each imaging cycle, a 2400-frame video stream including a (256 pixel)^2 region of interest (ROI) was recorded in 20 Hz acquisition rate with the EM-gain setting as 1000 on an Andor iXon Ultra 897 EMCCD. […]
Temporal clustering: For each spatial cluster, time-correlated PALM (tc-PALM) analysis was performed along the time axis to extract the truly colocalized, time-correlated multi-molecule bursting events. […] More details about the quantitative validations and statistics of tc-PALM analysis can be found in FIG. 30.

In the case of CC[C@H](C(=O)N1CCCC[C@H]1C(=O)O[C@H](CCc1ccc(OC)c(OC)c1)c1cccc(OCC(=O)NCCNC(=O)COc2cccc([C@@H](CCc3ccc(OC)c(OC)c3)OC(=O)[C@@H]3CCCCN3C(=O)[C@@H](CC)c3cc(OC)c(OC)c(OC)c3)c2)c1)c1cc(OC)c(OC)c(OC)c1 [AP1903], the “IR functional activity (pIR-FKBP, pIRS1)” value (IR-FKBP) is reported as “less functionally active” and the “lifetime of IR condensates” value (IR-FKBP condensates) is reported as “significantly increased the lifetime of IR condensates”.

From patent US20250186379A1, “METHODS AND AGENTS FOR DECREASING INSULIN RESISTANCE” (Whitehead Institute for Biomedical Research, priority 2021, published 2025)
